One block for each compound: values may come before it.
Legend:
[1] = molecular target: T1, Dual specificity mitogen-activated protein kinase kinase 3 (Homo sapiens) (UniProt P46734); conditions: at 10 µM
T1 sequence (whole entry): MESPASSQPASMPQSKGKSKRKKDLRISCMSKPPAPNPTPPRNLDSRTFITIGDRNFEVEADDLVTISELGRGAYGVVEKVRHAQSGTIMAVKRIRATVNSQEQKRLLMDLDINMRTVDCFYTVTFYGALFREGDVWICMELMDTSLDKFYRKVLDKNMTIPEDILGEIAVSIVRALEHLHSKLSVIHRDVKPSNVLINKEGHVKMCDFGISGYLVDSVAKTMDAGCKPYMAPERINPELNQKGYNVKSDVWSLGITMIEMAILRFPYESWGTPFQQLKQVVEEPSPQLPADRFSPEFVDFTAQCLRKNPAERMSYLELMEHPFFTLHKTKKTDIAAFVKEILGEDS

[2] = molecular target: DNA (cytosine-5)-methyltransferase 1 (Homo sapiens) (UniProt P26358); experiment: Selectivity interaction (Methyltransferase screen (radiometric assays, panel of 8 PRMTs, 21 protein lysine methyltransferases, 3 DNA methyltransferases, and one RNA methyltransferase)) EUB0000272b DNMT1
DNA (cytosine-5)-methyltransferase 1 (Homo sapiens), sequence (P26358 whole entry): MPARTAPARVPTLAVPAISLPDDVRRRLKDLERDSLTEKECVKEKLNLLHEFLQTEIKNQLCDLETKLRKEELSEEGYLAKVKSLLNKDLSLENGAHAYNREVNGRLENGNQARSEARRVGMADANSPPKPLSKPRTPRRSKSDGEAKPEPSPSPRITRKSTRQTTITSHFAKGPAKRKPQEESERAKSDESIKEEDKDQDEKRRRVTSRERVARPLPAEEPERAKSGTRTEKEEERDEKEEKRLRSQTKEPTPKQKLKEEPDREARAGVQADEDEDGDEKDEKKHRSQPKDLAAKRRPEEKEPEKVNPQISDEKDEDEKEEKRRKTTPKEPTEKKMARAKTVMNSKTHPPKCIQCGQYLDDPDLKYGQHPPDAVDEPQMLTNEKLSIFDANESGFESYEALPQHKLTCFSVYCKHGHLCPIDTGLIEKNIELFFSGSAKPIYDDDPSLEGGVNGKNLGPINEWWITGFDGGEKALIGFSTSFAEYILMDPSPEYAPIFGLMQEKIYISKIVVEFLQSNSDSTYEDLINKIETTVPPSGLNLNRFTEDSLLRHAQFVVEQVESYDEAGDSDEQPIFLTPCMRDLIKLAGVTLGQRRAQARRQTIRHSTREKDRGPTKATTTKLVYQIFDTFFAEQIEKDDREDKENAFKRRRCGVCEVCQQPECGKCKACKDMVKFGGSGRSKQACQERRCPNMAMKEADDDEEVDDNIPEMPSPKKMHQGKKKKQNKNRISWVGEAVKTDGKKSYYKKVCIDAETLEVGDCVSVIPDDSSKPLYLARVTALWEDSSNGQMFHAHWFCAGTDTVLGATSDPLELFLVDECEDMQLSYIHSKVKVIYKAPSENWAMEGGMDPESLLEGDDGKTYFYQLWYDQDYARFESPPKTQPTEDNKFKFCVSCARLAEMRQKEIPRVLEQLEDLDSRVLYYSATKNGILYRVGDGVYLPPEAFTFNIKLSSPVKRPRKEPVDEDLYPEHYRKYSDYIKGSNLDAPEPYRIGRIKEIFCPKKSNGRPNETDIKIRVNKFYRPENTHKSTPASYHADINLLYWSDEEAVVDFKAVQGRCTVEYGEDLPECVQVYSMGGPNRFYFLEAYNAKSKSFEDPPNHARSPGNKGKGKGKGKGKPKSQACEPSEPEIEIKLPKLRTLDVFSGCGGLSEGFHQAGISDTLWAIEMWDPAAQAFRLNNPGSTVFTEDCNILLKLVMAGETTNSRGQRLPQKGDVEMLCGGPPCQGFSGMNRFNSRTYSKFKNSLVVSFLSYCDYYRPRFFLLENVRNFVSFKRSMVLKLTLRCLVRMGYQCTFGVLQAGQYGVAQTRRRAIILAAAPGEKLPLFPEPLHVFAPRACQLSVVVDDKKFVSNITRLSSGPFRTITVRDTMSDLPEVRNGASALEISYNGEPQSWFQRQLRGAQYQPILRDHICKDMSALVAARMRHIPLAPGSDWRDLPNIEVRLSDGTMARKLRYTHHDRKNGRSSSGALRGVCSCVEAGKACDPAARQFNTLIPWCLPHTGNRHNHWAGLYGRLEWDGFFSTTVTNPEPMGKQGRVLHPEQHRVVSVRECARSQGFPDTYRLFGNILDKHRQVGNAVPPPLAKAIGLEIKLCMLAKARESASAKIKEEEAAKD

[3] = system: Tyrosine-protein kinase ABL1 (Homo sapiens), P00519 [Q252H]; experiment: Selectivity interaction (Ambit KINOMEscan and KiNATiv profiling in Jurkat cells) EUB0000090b ABL1; format: cell-based; conditions: at 1 µM
[4] = molecular target: Serine/threonine-protein kinase pim-2 (Homo sapiens, UniProt Q9P1W9); experiment: Selectivity interaction (KinomeScan (DiscoverX)) EUB0001079a PIM2; conditions: at 1 µM
[5] = system: Epidermal growth factor receptor (Homo sapiens), P00533 [UNDEFINED MUTATION]; experiment: Selectivity interaction (KinomeScan (DiscoverX)) EUB0000607a EGFR; conditions: at 10 µM
Epidermal growth factor receptor (Homo sapiens), P00533 [UNDEFINED MUTATION], sequence (P00533 whole entry, looked up, change not shown): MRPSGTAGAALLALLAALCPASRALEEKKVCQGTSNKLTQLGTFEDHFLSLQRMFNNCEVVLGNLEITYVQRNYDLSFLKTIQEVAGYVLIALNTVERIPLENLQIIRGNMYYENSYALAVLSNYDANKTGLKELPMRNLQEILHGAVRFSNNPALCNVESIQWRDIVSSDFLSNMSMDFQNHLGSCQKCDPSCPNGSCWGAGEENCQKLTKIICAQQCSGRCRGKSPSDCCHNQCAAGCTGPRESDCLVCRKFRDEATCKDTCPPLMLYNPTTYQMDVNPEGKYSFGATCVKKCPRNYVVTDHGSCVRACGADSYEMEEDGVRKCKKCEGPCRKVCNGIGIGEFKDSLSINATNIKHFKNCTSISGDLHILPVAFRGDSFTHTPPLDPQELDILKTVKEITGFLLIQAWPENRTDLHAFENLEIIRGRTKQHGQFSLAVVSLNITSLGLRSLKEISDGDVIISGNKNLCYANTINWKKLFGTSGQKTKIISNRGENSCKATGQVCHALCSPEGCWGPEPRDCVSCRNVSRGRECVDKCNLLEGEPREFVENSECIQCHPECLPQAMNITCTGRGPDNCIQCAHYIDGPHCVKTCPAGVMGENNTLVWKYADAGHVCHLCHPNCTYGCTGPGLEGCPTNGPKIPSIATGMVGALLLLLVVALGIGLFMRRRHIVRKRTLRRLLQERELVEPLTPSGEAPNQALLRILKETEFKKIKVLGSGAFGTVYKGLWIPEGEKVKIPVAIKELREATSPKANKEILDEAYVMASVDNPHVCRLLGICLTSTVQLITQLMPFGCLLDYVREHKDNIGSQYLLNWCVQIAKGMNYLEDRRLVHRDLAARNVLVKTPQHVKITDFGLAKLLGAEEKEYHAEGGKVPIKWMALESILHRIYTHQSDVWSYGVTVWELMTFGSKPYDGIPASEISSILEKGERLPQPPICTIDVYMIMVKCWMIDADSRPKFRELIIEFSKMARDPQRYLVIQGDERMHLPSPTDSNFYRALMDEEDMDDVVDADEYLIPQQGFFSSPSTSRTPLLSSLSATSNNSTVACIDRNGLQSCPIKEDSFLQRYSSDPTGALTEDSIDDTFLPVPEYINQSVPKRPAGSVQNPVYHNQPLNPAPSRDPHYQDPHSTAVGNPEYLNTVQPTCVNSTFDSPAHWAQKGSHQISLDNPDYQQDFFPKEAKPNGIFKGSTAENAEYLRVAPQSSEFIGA

[6] = molecular target: T2, Dual specificity mitogen-activated protein kinase kinase 5 (Homo sapiens) (UniProt Q13163); experiment: Selectivity interaction (KinomeScan (DiscoverX)) EUB0000045b MAP2K5
T2 sequence (whole entry): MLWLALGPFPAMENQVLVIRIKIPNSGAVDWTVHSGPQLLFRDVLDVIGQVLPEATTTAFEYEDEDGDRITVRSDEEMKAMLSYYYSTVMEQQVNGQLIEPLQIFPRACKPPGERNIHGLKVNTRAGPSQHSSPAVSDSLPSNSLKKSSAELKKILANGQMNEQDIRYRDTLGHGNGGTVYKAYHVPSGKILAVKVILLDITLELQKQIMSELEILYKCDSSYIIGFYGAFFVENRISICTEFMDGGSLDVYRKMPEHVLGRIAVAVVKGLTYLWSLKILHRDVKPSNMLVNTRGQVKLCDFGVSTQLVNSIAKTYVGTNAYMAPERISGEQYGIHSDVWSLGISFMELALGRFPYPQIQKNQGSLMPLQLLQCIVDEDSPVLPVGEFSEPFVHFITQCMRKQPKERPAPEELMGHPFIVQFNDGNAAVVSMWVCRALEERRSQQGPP

[7] = molecular target: Histone-lysine N-methyltransferase KMT5B (Homo sapiens) (UniProt Q4FZB7); conditions: at 10 µM
Histone-lysine N-methyltransferase KMT5B (Homo sapiens), sequence (Q4FZB7 whole entry, looked up): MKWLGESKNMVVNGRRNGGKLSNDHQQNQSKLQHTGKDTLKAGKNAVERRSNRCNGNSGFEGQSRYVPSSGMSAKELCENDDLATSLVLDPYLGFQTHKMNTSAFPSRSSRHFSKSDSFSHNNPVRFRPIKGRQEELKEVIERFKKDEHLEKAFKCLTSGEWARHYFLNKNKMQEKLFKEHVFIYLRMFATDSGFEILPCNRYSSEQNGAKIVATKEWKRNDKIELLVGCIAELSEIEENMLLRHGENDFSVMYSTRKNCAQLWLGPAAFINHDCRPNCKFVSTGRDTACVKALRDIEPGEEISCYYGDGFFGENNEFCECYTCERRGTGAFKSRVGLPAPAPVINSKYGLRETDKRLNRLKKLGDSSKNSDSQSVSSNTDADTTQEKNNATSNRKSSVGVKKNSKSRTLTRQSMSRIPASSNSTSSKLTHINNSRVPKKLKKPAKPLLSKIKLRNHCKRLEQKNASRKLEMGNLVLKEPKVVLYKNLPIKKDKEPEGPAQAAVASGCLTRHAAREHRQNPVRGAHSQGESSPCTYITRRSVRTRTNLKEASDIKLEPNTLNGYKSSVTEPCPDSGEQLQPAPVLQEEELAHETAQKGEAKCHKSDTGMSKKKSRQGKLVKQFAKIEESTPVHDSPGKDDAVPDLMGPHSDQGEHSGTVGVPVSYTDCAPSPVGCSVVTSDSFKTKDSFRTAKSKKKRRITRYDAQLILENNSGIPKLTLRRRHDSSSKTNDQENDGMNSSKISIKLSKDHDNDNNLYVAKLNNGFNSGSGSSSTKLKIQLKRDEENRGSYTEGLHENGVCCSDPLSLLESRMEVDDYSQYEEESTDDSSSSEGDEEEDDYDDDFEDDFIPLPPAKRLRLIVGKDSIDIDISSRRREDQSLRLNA

[8] = molecular target: Tyrosine-protein kinase BTK (Homo sapiens, UniProt Q06187); experiment: Selectivity interaction (ActivX KiNativ screen (kinase selectivity in THP-1 cell lysates)) EUB0000639a BTK; format: subcellular; conditions: lysate, at 0.2 µM
[9] = molecular target: Wee1-like protein kinase (Homo sapiens) (UniProt P30291); experiment: Selectivity interaction (Kinase panel (Invitrogen)) EUB0000639a WEE1; conditions: at 200 nM
[10] = molecular target: T3, cAMP-dependent protein kinase catalytic subunit PRKX (Homo sapiens) (UniProt P51817); experiment: Selectivity interaction (ProQinase) EUB0000171b PRKX
T3 sequence (whole entry): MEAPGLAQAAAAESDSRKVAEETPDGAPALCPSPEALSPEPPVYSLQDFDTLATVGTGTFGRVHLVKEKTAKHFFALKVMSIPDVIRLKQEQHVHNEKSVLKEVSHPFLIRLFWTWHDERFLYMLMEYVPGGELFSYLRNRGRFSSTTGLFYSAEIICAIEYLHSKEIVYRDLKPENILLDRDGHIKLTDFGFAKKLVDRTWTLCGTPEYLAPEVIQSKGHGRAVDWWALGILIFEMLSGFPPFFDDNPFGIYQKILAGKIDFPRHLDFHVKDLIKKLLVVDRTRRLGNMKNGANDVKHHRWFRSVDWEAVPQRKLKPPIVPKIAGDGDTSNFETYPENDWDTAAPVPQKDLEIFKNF

[11] = molecular target: Glycogen synthase kinase-3 beta (Homo sapiens, UniProt P49841); experiment: Selectivity interaction (Kinase panel (33PanQinase(R) Activity Assay)) EUB0000877a GSK3B
[12] = molecular target: Glutamate receptor ionotropic, NMDA 1 (Homo sapiens) (UniProt Q05586); experiment: Selectivity interaction (Panel of kinases, GPCRs, ion channels and transporters (enzymatic assay)) EUB0000266bCl GRIN1
[13] = system: Tyrosine-protein kinase JAK2 (Homo sapiens), O60674 [V617F]; experiment: (§1) Selectivity interaction (Kinase panel (Z-LYTE Assay)) EUB0001632a JAK2; conditions: at 10 µM
Tyrosine-protein kinase JAK2 (Homo sapiens), O60674 [V617F], sequence (O60674 whole entry V617F): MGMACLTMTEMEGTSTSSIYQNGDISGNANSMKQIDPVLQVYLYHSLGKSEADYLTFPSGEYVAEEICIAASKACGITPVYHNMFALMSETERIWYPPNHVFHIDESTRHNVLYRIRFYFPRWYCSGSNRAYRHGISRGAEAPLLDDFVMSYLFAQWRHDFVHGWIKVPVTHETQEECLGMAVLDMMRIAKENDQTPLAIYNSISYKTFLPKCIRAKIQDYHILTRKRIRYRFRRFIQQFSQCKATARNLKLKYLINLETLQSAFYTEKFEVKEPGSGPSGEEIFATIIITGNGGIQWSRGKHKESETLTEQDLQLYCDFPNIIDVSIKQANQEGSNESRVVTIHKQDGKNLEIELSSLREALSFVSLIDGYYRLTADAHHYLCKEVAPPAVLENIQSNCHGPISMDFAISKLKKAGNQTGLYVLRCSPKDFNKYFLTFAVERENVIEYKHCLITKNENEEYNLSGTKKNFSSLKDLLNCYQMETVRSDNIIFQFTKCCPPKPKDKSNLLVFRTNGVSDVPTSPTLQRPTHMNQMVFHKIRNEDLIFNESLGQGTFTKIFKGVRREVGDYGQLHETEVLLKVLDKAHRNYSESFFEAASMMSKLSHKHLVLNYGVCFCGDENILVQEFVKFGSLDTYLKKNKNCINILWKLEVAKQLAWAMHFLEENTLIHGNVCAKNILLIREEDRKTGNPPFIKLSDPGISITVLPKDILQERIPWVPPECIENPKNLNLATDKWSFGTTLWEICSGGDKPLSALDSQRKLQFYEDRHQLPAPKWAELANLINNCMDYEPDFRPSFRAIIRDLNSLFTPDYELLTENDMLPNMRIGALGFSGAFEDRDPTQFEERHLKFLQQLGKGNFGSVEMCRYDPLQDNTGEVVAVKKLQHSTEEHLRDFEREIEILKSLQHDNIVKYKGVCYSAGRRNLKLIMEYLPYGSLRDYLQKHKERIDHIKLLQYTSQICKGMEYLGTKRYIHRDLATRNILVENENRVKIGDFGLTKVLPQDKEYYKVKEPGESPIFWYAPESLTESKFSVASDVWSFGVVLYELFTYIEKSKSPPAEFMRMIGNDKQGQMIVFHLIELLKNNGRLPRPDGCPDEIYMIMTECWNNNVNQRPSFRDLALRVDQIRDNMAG

[14] = molecular target: Tyrosine-protein kinase JAK2 (Homo sapiens, UniProt O60674); experiment: as §1; conditions: at 10 µM
Tyrosine-protein kinase JAK2, sequence (O60674 whole entry): as the sequence (O60674 whole entry V617F) above, with F617V counted along it

SMILES: Cc1cc(C)cc([C@H]2c3cc(C)ccc3NC(=O)CN2C(=O)c2ccc(Br)s2)c1
% of activity ([2]; at 1 µM): 98.7%
% of activity ([2]; at 10 µM): 104%

SMILES: CN(C)C/C=C/C(=O)Nc1ccc(C(=O)N2CCCC(Nc3ncc(Cl)c(-c4c[nH]c5ccccc45)n3)C2)cc1 (configuration not stated)
% of control [3]: 100%

SMILES: Nc1cnc(N2CCc3cc(S(=O)(=O)Nc4c(F)cc(Cl)cc4F)cc(N4CCCC4=O)c32)nc1 [TP-020n]
% of control [4]: 85%

SMILES: CNC(=O)Nc1ccc(-c2nc(N3CC4CCC(C3)O4)c3cnn(C4CCC5(CC4)OCCO5)c3n2)cc1
% of control [5]: 62%

SMILES: C=CC(=O)Nc1cc(-n2c(=O)ccc3cnc4ccc(-c5ccc(NS(C)(=O)=O)cc5)cc4c32)ccc1C
% of control ([6]; at 1 µM): 100%
% of control ([6]; at 10 µM): 64%

SMILES: CC[C@@H]1[C@H](F)C(=O)N[C@@H]1COc1nccc2cc(C(N)=O)c(OC)cc12 [ZIMLOVISERTIB]
% of inhibition [8]: -2.7%
% of inhibition [9]: -0.606%

SMILES: CCn1c(-c2nc3cc(C(=O)N4CCCC(N)C4)ccc3n2C)cc2ccccc21 (configuration not stated)
pXC50 [12]: < 4.3 M

Continued, values first:

% of control [1]: 100%
SMILES: CCN(CC)CCCCNc1ncc2cc(-c3cc(OC)cc(OC)c3)c(NC(=O)NC(C)(C)C)nc2n1

% activity [7]: > 90%
SMILES: CNCCN1CCC(c2cc(CN(C)C(=O)c3cccc(Oc4ccccc4)c3)ccn2)CC1

% of control ([10]; at 1 µM): 86%
% of control ([10]; at 5 µM): 61%
SMILES: C=CC(=O)Nc1cccc(C(=O)Nc2ccc(Nc3cc(-c4[nH]c(SC)nc4C)ccn3)cc2)c1

IC50 [11]: > 10 µM
SMILES: CCC(=O)N1CC[C@H](Nc2ncnc3c2CN(c2cnc(OC)c(C(F)(F)F)c2)CC3)C1 [LENIOLISIB]

% of control [13]: -2.15%
% of control [14]: -3.18%
SMILES: Cn1cc(-n2cnc3c(NCc4nc5cc(Cl)c(Cl)cc5[nH]4)nc(N4CCOCC4)nc32)cn1

From ChEMBL document CHEMBL5465560, “Selectivity Literature for EUbOPEN Chemogenomic Library” (2024)
